Reference: patent US20260007756A1, “COMPOUND AND USE THEREOF” (COHERENT BIOPHARMA (SUZHOU) LIMITED, priority 2022, published 2026)

What was measured:
[1] = tested on: human liver cancer HepG2 cell subcutaneous xenograft tumor; experiment: Pharmacodynamic assessment, HepG2 xenograft model; format: in vivo, BALB/c nude mouse; conditions: 4 mg/kg iv biw×3, day 36 after grouping
Description: Objective: Pre-clinical assessment of the efficacy of CR202 series of compounds in BALB/c nude mouse model with human liver cancer HepG2 cell subcutaneous xenograft tumor with no FOLR1 or PSMA receptor expression.
Procedures: 0.1 mL (10×10^6 cells) of HepG2 cells was subcutaneously inoculated on the right back of each mouse, and the mice were randomized into a modeling control group and treatment groups after the mean tumor volume was approximately 100-150 mm^3. The treatment was started on the first day of grouping. Before the start of administration, the animals were weighed, and the tumor volume was measured with a vernier caliper. After the grafting of tumor cells, the routine monitoring included the effect on tumor growth and the effect of treatment on the normal behavior of the animals, specifically the activity, food and water intake, weight gain or loss, the eyes, the hair, and other abnormal conditions. After the administration was started, the body weight and tumor size of the mice were measured periodically. The calculation formula for tumor volume: Tumor volume V (mm^3)=1/2×(a×b^2) (where a denotes the long diameter and b notes the short diameter). The calculation formula for the tumor growth inhibition, TGI (%), is TGI %=(1−T/C)×100% (T and C are the mean tumor volume of the treatment group and control group, respectively, at a particular time point).

[2] = tested on: HT-29 cell subcutaneous xenograft tumor; experiment: Pharmacodynamic assessment, HT-29 xenograft model; format: in vivo, BALB/c nude mouse
Text: Objective: Pre-clinical assessment of the efficacy of CR202 series of compounds for treating BALB/c nude mouse model with HT-29 cell subcutaneous xenograft tumor.
Procedures: HT-29 cells were subcutaneously grafted at the right back of the mice, and the mice were randomized when the mean tumor volume reached 100-150 mm^3. After the administration, the routine monitoring included the effect on tumor growth and the effect of treatment on the normal behavior of the animals, specifically the activity, food and water intake, weight gain or loss, the eyes, the hair, and other abnormal conditions. Clinical symptoms observed during the study were recorded in the raw data. After the administration was started, the body weight and tumor size of the mice were measured periodically. The tumor volume was calculated using the following formula: V=1/2×(a×b^2), where a and b denote the long diameter and short diameter of the tumor, respectively.

[3] = 2 mg/kg i.v BIW×3, day 25 after grouping
[4] = 4 mg/kg i.v BIW×3, day 25 after grouping

CC[C@@H]1C(=O)N(C)c2cnc(Nc3ccc(-c4cn([C@H]5CC[C@@H](NCCOCCC#Cc6cccc7c6CN(C6CCC(=O)NC6=O)C7=O)CC5)nn4)cc3OC)nc2N1C1CCCC1 (stereo partly drawn) [CR20274]
Mean tumor volume [1]: 1329.84 mm^3
TGI [1]: 22.99%
Mean tumor volume [2, 3]: 1575.84 mm^3
TGI [2, 3]: 24.23%
Mean tumor volume [2, 4]: 1316.64 mm^3
TGI [2, 4]: 36.69%
